The text below walks through data of publication PMC7417813, “Synthesis and Biological Evaluation of Thio-Derivatives of 2-Hydroxy-1,4-Naphthoquinone (Lawsone) as Novel Antiplatelet Agents” (Frontiers in Chemistry, 2020).

Entries after “also recorded” stand apart in the source; their conditions may differ. Like-named read-outs stand apart in the source and are kept apart here.

For series [1], the system named is collagen-stimulated platelets. The series is described as follows: Platelet aggregation induced by collagen (light transmission, lumi-aggregometer). Type of series: cell-based, human. The following applies: platelet aggregation induced by collagen (1 μg/mL), washed platelets pre-incubated 5 min at 37°C, read-out: IC50 (μM) ± SD Collagen (1 μg/mL). How it is done:
(§1) Platelet aggregation was evaluated using a lumi-aggregometer (Chrono-Log, Haverton, PA, USA) and monitored by light transmission according to Fuentes et al. (Fuentes et al., [2014a]; Mendez et al., [2020]). Briefly, washed platelets (200 × 10^9 platelets/L) were pre-incubated for 5 min at 37°C and pH 7.4 with vehicle or different doses of compounds; then platelet aggregation was induced by TRAP-6 (5 μM) or collagen (1 μg/mL) and measured for 5 min at 37°C while stirring.
(§2) The data obtained were presented as a mean ± standard deviation (SD) of three independent experiments and analyzed using Prism 8.3 software (GraphPad Inc., San Diego CA, USA). The half-maximal inhibitory concentration (IC50) was calculated from dose-response curves. Differences between samples were analyzed using Tukey or paired t-test (Vaiyapuri et al., [2013]). P-values < 0.05 were considered as significant (Fuentes et al., [2014b]; Munoz-Gutierrez et al., [2017]).

Series [2] deals with TRAP-6-stimulated platelets. The series is described as follows: Platelet aggregation induced by TRAP-6 (light transmission, lumi-aggregometer). Type of series: cell-based, human. As to conditions: platelet aggregation induced by TRAP-6 (5 μM), washed platelets pre-incubated 5 min at 37°C, read-out: IC50 (μM) ± SD TRAP-6 (5 μM). How it is done: as §1, §2
The test system of series [3] is washed platelets. The series is described as follows: Lactate dehydrogenase (LDH)-based cytotoxicity assay on washed platelets. As to conditions: for cytotoxicity on platelets by LDH leakage (in words): 100 μM, 10 min at 37°C; for Cytotoxic activity Mean (%) ± SD: LDH release as percentage of total enzyme activity (0.3% Triton X-100 lysis), 100 μM compound, 10 min, 37°C, washed platelets. For orientation: LDH in the medium is a marker of cell lysis.
Procedure: Platelets were obtained from citrated whole blood of healthy volunteers (two weeks drugs-free) with written informed consent, as previously described (Fuentes et al., [2014a]).
Washed platelets (200 × 10^9 platelets/L) were incubated for 10 min at 37°C with DMSO (vehicle) 0.2% or 100 μM of compounds. Then, platelets are centrifuged (800 × g for 8 min), and 50 μL aliquots of the resulting supernatant analyzed by the LDH assay (Cayman Chemical, USA).

The subject of series [4] is platelets. Briefly: Externalization of phosphatidylserine by annexin-V binding (flow cytometry). The following applies: Figure 3A. Format: cell-based, human. The procedure:
(§3) Externalization of phosphatidylserine, glycoprotein (GP) IIb/IIIa activation, P-selectin expression, CD63 release, and ROS levels on platelets were determined by flow cytometry (Ritchie et al., [2000]; Fuentes et al., [2014b]; Walsh et al., [2014]). All results were analyzed in the Accuri C6 flow cytometer (BD, Biosciences, USA).
(§4) Figure 3 Antiplatelet activity of compound 4. (A) Externalization of phosphatidylserine was evaluated by annexin-V binding. (B) Levels of CD63 on the surface of platelets after activation by TRAP-6 (5 μM) or collagen (1 μg/mL). (C) P-selectin expression was measured by flow cytometry in platelets stimulated with TRAP-6 (5 μM) or collagen (1 μg/mL). (D) GPIIb/IIIa activation stimulated by TRAP-6 (5 μM) or collagen (1 μg/mL) was determined by flow cytometry using the PAC-1 antibody. The graph depicts the mean ± SD of n = 3 experiments. The black graph is the control of resting platelets. ^*p < 0.05, ^**p < 0.01, and ^***p < 0.001 vs. 0 (vehicle DMSO 0.2%).

Series [5] relates to CD63. The series is described as follows: CD63 levels on the surface of platelets (flow cytometry). Type of series: cell-based, human. As to conditions: Figure 3B. The procedure:
as §3, §4
On the technique in general: In flow cytometry, cells or beads pass a laser one at a time.

Series [6] relates to GPIIb/IIIa. The series is described as follows: GPIIb/IIIa activation by PAC-1 antibody binding (flow cytometry). As to conditions: Figure 3D. Type of series: cell-based, human. The procedure:
as §3, §4
Small structural changes led to the synthesis of non-toxic lawsone thio-derivatives with potent antiplatelet activity (Tables 1, 3). […] Thus, we decided to deeply analyze the effects of compound 4 in platelets. […] We analyzed the activated form of GPIIb/IIIa by studying the binding of FITC-labeled PAC-1 antibody by flow cytometry (Fuentes et al., [2014a]).

Series [7] has as its system P-selectin. The series is described as follows: P-selectin expression on platelets (flow cytometry). Format: cell-based, human. The following applies: compound at 10 and 40 μM, Figure 3C. How it is done:
as §3, §4

Turning to `O=C1C(O)=C(Sc2ccccc2)C(=O)c2ccccc21` [Compound 1, 2-Hydroxy-3-(phenylthio)naphthalene-1,4-dione], the IC50 in series [1] (Homo sapiens) was determined as 14.6 ± 5.43 µM. In series [2] (Homo sapiens), the IC50 worked out at 155 ± 55.2 µM. In series [3], the “cytotoxicity on platelets by LDH leakage (in words)” value (shortened to “cytotoxicity on platelets”) is listed as “did not exert cytotoxicity” and the “Cytotoxic activity Mean (%) ± SD” value was determined as 22.35 ± 2.94%.

As for “2-((4-Bromophenyl)thio)-3-hydroxynaphthalene-1,4-dione [Compound 4]”, the phosphatidylserine exposure result in series [4] is reported as “unable to affect”. Also, the IC50 in series [1] amounted to 5.58 ± 1.01 µM; in series [2] it was 15 ± 1.52 µM. The “expression of CD63 on platelets' membrane” value in series [5] (after activation with TRAP-6 (5 μM)) and in series [5] (after activation with collagen (1 μg/mL)) was “decreased” each time. The “PAC-1 binding to platelets (GPIIb/IIIa activation)” value in series [6] (TRAP-6-induced) and in series [6] (collagen-induced) was “inhibited” in each case. Besides, the “P-selectin expression on activated platelets” value in series [7] (TRAP-6 (5 μM)) and in series [7] (collagen (1 μg/mL)) was “inhibited” each time. The “cytotoxicity on platelets” value in series [3] was “no cytotoxicity was observed; also recorded: did not exert cytotoxicity; also recorded: non-toxic”. In addition, the “Cytotoxic activity Mean (%) ± SD” value in series [3] is listed as 22.38 ± 5.78%.

Turning to `O=C1C(O)=C(Sc2ccccc2F)C(=O)c2ccccc21` [Compound 6, 2-((2-Fluorophenyl)thio)-3-hydroxynaphthalene-1,4-dione], in series [1] (Homo sapiens), the IC50 was determined as 10.6 ± 2.25 µM. Further, the IC50 in series [2] (Homo sapiens) was over 500 µM. Moreover, in series [3], the “cytotoxicity on platelets” value is “did not exert cytotoxicity” and the “Cytotoxic activity Mean (%) ± SD” value turned out to be 21.77 ± 2.37%.

In the case of `COC(=O)c1ccccc1SC1=C(O)C(=O)c2ccccc2C1=O` [Compound 5, Methyl 2-((3-hydroxy-1,4-dioxo-1,4-dihydronaphthalen-2-yl)thio)benzoate], the melting point (as a rule, the temperature of the solid-liquid transition) was 235 °C (dec.). Further, in series [3], the “cytotoxicity on platelets” value was “had a cytotoxic activity” and the “Cytotoxic activity Mean (%) ± SD” value is listed as 31.12 ± 3.06 %.

With `O=C1C=C(O)C(=O)c2ccccc21` [Lawsone, 2-hydroxy-1,4-naphthoquinone], in series [3], the “cytotoxicity on platelets” value is reported as “had a cytotoxic activity” and the “Cytotoxic activity Mean (%) ± SD” value is reported as 32.80 ± 3.13 %.

Turning to `O=C1C(O)=C(Sc2cccc(F)c2)C(=O)c2ccccc21` [Compound 7, 2-((3-Fluorophenyl)thio)-3-hydroxynaphthalene-1,4-dione], the melting point was 268.7 °C (dec.). Also, the IC50 in series [1] (Homo sapiens) worked out at 11.1 ± 1.69 µM. The IC50 in series [2] (Homo sapiens) was 134 ± 17.3 µM. In series [3], the “cytotoxicity on platelets” value is “did not exert cytotoxicity” and the “Cytotoxic activity Mean (%) ± SD” value is recorded as 21.50 ± 2.37%.

Consider `O=C1C(O)=C(Sc2ccc(F)cc2)C(=O)c2ccccc21` [Compound 8, 2-((4-Fluorophenyl)thio)-3-hydroxynaphthalene-1,4-dione], for which the melting point was 268 °C (dec.). Further, in series [1] (Homo sapiens), the IC50 was 12.1 ± 1.21 µM. The IC50 in series [2] (Homo sapiens) stood at 108 ± 53 µM. Further, in series [3], the “cytotoxicity on platelets” value is “did not exert cytotoxicity” and the “Cytotoxic activity Mean (%) ± SD” value turned out to be 21.62 ± 4.17%.

On to “2-((2-bromophenyl)thio)-3-hydroxynaphthalene-1,4-dione [Compound 2]”, for which the figures for the IC50 in series [1] and in series [2] were 11.2 ± 3.9 µM and 112 ± 17.5 µM, respectively. Further, the “cytotoxicity on platelets” value in series [3] is “did not exert cytotoxicity”. In addition, the “Cytotoxic activity Mean (%) ± SD” value in series [3] was 14.72 ± 10.92%.
